Measured values published in patent publication US20220340983A1, “SYSTEMS AND ASSAYS FOR IDENTIFYING PU.1 INHIBITORS” (Massachustts Institute of Technology, priority 2019, published 2022).
Starred links: 1 amine or outer side, 2 acyl side, 3 side chain; linkers in the order of their positions; H or OH if unused. Positions of bridges follow the written chain, without caps; N, C: chain ends. Non-standard residues stand in square brackets, D forms with d. Residues, ends and D or L forms follow the SMILES beside them. Chains are numbered I, II in the order given. Actinocin(9to1) = Cc1c2oc3c(C)ccc(C(=O)[*:1])c3nc-2c(C(=O)[*:2])c(N)c1=O; NMeV = CN[C@H](C(=O)O)C(C)C; Sar = CNCC(=O)O

What was measured:
[1] = system: BV2 PU.1-Luciferase cells; assay: Cell viability (Hoechst staining) in BV2 PU.1-Luciferase cells; format: cell-based, mouse
Experimental: The BV2 PU.1-Luciferase cells (referred to as “cells” from here onward) were plated into a 384-well plate, using an automatic dispenser, 2000 cells per well in 30 μL of media composed of RPMI (Sigma-Aldrich), 10% FBS, 1% PenStrep (50 mg/mL) and 1% G418 (50 mg/mL) was plated. […] For reproducibility, each pin array with 384 compounds was added to 4 plates of cells. The cells and compounds were incubated at 37° C. for a period of time sufficient for the compounds to have an effect on the cells (about 2 days). Subsequently, automatic of 30 μL of BrightGlo (Promega) was dispensed into 2 of the 4 plates, in order to lyse the cells and drive the luminescence reaction whereafter the luminescence intensity was measured by a plate reader (Perkin Elmer EnVision). The two other plates were fixed by automatically dispensing 30 μL of 10% formaldehyde with 2μL Hoechst per 1 mL formaldehyde which were left at room temperature for one hour, followed by plate reading (Acumen (TTPLabTech)). A compound transfer and treatment would be repeated if reproducibility between the luminescence plates and/or the fixed Hoechst plates was lacking. […] Luminescence values used were corrected for crosstalk. Hoechst values were total fluorescence area per well. Determination of a positive hit considered both the reduction of luminescence as well as a possible confounding reduction in cell viability. […]

[2] = system: HEK293 CMV-Luciferase cells; assay: Cell viability (Hoechst staining) in HEK293 CMV-Luciferase cells; details: for cell viability (Hoechst) (FIG. 2D): HEK293 CMV-Luciferase cell line, 1 μM; for cell viability (Hoechst-staining): HEK293 CMV-Luciferase line, 2-day incubation, actinomycin D, puromycin, 119113 10 μM, DB2313 2.5 μM
Experimental: Assays were conducted for percent luminescence and cell viability (Hoechst-staining) after a 2-day incubation under the following conditions. As negative controls pure DMSO and “mock” conditions (where nothing is added to the cells) were used.

[3] = system: PU.1 dependent gene expression; assay: RT-qPCR of mRNA levels in BV2 PU.1-Luciferase cells (validation round 3); format: cell-based, mouse; details: 2-day treatment
PU.1 [4] = target: T1, PU.1 (Mus musculus, UniProt P17433); assay: Luciferase assay (luminescence) in BV2 PU.1-Luciferase reporter cells; format: cell-based; details: for IC50: luminescence reduction in BV2 PU.1-Luciferase cells, concentration-response, Hill's equation
T1 construct: endogenous in cells; host or cells: BV2 PU.1-Luciferase (mouse microglial BV2 with a 5xLBB-luciferase reporter integrated at ROSA26)

[5] = system: HEK293 CMV-Luciferase cells; assay: Luminescence in HEK293 CMV-Luciferase control line (luciferase quencher counter-screen); format: cell-based
From the text: The IACS Selleck Known Bioactive library (2,100 compounds) was screened and there 35 hits were identified (˜1.7% hit rate), the Asinex1 library (12,000 compounds) was screened and 60 hits were identified (˜0.5% hit rate), and the ChemDiv6 library (44,000 compounds) was screened and 169 hits were identified (˜0.4% hit rate). The Selleck library contains drugs approved by the United States Food and Drug Administration (FDA) with known intracellular mechanisms of action which will give instant insight into pathways that block PU.1 activity. The Asinex1 and ChemDiv6 libraries contain molecules with unknown biological properties, but with low toxicity, high stability, and a broad structural diversity used to generate structure-activity-relationships (SAR) of the PU.1 inhibitors. SAR is used to design new drug libraries containing only molecules with similar structures as previous hits. In order to obtain the SAR, three rounds of validation were performed. In round 1, false-positive, non-specific luciferase quencher molecules were excluded using the commercially available HEK293 CMV-Luciferase line that constitutively expresses luciferase under the CMV promoter. In round 2, weak (non-significant) hits were eliminated according to degree of PU.1 inhibition in the absence of cell death. In round 3, drugs were selected that reduce PU.1-dependent gene expression with RT-qPCR.

PU.1 [6] = target: T1, PU.1; assay: Luciferase assay (luminescence) in BV2 PU.1-Luciferase reporter cells; format: cell-based; details: BV2 PU.1-Luciferase cells, 1 μM

Row | SMILES | cell viability (Hoechst) (FIG. 2D) ([1]; BV2 PU.1-Luciferase cells, 1 μM) | cell viability (Hoechst-staining) ([1]; BV2 PU.1-Luciferase line, 2-day incubation, actinomycin D, puromycin, 119113 10 μM, DB2313 2.5 μM) | cell viability (Hoechst) (FIG. 2D) [2] | cell viability (Hoechst-staining) [2] | mRNA levels Apoe [3] | mRNA levels IL1β [3] | mRNA levels Lucif. [3] | mRNA levels Spi1 [3] | mRNA levels Trem2 [3] | mRNA levels Tyrobp [3] | IC50 (PU.1 [4]) [nM] | percent luminescence (PU.1 [4]; BV2 PU.1-Luciferase line, 2-day incubation, 119113 10 μM, DB2313 2.5 μM) | luminescence (FIG. 2D) ([5]; HEK293 CMV-Luciferase cell line, 1 μM) | percent luminescence ([5]; HEK293 CMV-Luciferase line, 2-day incubation, 119113 10 μM, DB2313 2.5 μM) | luminescence (FIG. 2D) (PU.1 [6])
1 | Cc1c2oc3c(C)ccc(C(=O)N[C@@H]4C(=O)N[C@H](C(C)C)C(=O)N5CCC[C@H]5C(=O)N(C)CC(=O)N(C)[C@@H](C(C)C)C(=O)O[C@@H]4C)c3nc-2c(C(=O)N[C@@H]2C(=O)N[C@H](C(C)C)C(=O)N3CCC[C@H]3C(=O)N(C)CC(=O)N(C)[C@@H](C(C)C)C(=O)O[C@@H]2C)c(N)c1=O [Actinomycin D] (I: T[dV]P[Sar][NMeV] / II: T[dV]P[Sar][NMeV]; ester I:1-I:C, II:1-II:C; linker I:N-II:N via Actinocin(9to1)) | toxic | reduced cell viability | toxic | reduced cell viability |  |  |  |  |  |  |  |  |  |  | 
2 | CCOc1ccc(-c2nc(CSCC(=O)NCc3ccc(Cl)cc3)c(C)o2)cc1 [Compound 2H3] |  |  |  |  | 1.111 multiples of 1× | 0.915 multiples of 1× | 0.722 multiples of 1× | 0.897 multiples of 1× | 0.986 multiples of 1× | 1.003 multiples of 1× | 734 |  |  |  | 
3 | Cc1ccc(-c2c(C)n3c4c(=O)n(C)c(=O)n(C)c4nc3n2CCO)cc1 [Compound 2H5] |  |  |  |  | 1.756 multiples of 1× | 0.185 multiples of 1× | 0.165 multiples of 1× | 1.316 multiples of 1× | 2.628 multiples of 1× | 2.422 multiples of 1× | 155 |  |  |  | 
4 | N#CC(=CNc1ccc2c(c1)OCCO2)c1nc2ccccc2[nH]1 [Compound A09] |  |  |  |  | 0.941 multiples of 1× | 0.644 multiples of 1× | 0.513 multiples of 1× | 0.931 multiples of 1× | 0.879 multiples of 1× | 0.821 multiples of 1× | 1480 |  |  |  | 
5 | Cc1ccccc1NC(=O)C(C)Sc1nc2ccccc2c(=O)n1C (stereo not shown) [Compound D04] |  |  |  |  | 0.841 multiples of 1× | 0.866 multiples of 1× | 0.519 multiples of 1× | 0.865 multiples of 1× | 0.976 multiples of 1× | 1.071 multiples of 1× | 477 |  |  |  | 
6 | Cn1nc(CC(=O)Nc2ccc(N3CCN(C(=O)OC(C)(C)C)CC3)cc2)c2ccccc2c1=O [Compound D06] |  |  |  |  | 1.233 multiples of 1× | 0.590 multiples of 1× | 0.153 multiples of 1× | 1.030 multiples of 1× | 1.510 multiples of 1× | 1.374 multiples of 1× | 25 |  |  |  | 
7 | CCOc1ccc(S(=O)(=O)NCc2ccncc2)cc1C(C)C [Compound D09] |  |  |  |  | 0.390 multiples of 1× | 0.938 multiples of 1× | 0.360 multiples of 1× | 0.781 multiples of 1× | 0.437 multiples of 1× | 0.496 multiples of 1× | 38 |  |  |  | 
8 | COc1cccc2cc(C(=O)Nc3ccc(N4CCNCC4)cc3)c(=O)oc12 [Compound D10] |  |  |  |  | 1.251 multiples of 1× | 1.347 multiples of 1× | 0.622 multiples of 1× | 1.072 multiples of 1× | 1.342 multiples of 1× | 1.593 multiples of 1× | 258 |  |  |  | 
9 | CC(=NCCCn1ccnc1)c1c(C(F)(F)F)[nH]n(-c2nc3ccccc3s2)c1=O [Compound E01] |  |  |  |  | 0.823 multiples of 1× | 0.986 multiples of 1× | 0.416 multiples of 1× | 0.912 multiples of 1× | 0.903 multiples of 1× | 0.988 multiples of 1× | 663 |  |  |  | 
10 | CC(C)N=C(N)c1ccc2nc(-c3ccc(OCc4cccc(COc5ccc(-c6nc7ccc(C(N)=NC(C)C)cc7[nH]6)cc5)c4F)cc3)[nH]c2c1 [DB2313, reference compound] |  |  | only in the BV2 PU.1-Luciferase line | no effect | 0.600 multiples of 1× | 0.460 multiples of 1× | 0.340 multiples of 1× | 0.820 multiples of 1× | 1.030 multiples of 1× | 1.030 multiples of 1× |  | reduction in luminescence | only in the BV2 PU.1-Luciferase line | no effect | reduced luminescence
11 | CCOC(=O)O[C@]1(C(=O)OCCl)CC[C@H]2[C@@H]3CCC4=CC(=O)C=C[C@]4(C)[C@H]3[C@@H](O)C[C@@]21C [Loteprednol, reference compound] |  |  |  |  | 1.579 multiples of 1× | 0.805 multiples of 1× | 0.265 multiples of 1× | 1.167 multiples of 1× | 0.979 multiples of 1× | 0.927 multiples of 1× | 3 |  |  |  | 
12 | C[C@@H]1C[C@H]2[C@@H]3CCC4=CC(=O)C=C[C@]4(C)[C@@]3(Cl)[C@@H](O)C[C@]2(C)[C@@]1(O)C(=O)CCl [Mometasone, reference compound] |  |  |  |  | 1.444 multiples of 1× | 0.531 multiples of 1× | 0.520 multiples of 1× | 1.016 multiples of 1× | 1.051 multiples of 1× | 1.343 multiples of 1× | 3 |  |  |  | 
13 | COc1ccc(C[C@H](N)C(=O)N[C@H]2[C@@H](O)[C@H](n3cnc4c(N(C)C)ncnc43)O[C@@H]2CO)cc1 [puromycin] |  |  | ineffective | resistant |  |  |  |  |  |  |  |  |  |  | 
